Values after ≈ are worked out from the molar mass of the structure shown.
Key:
[1] = target: human soluble guanylate cyclase alpha 1 and beta 1 subunits (sGC) (Homo sapiens (Human), UniProt Q02108+Q02153); test: sGC cellular activator assay (cGMP, HTRF), in the presence and absence of 50% human serum; type: cell-based; conditions: CHO cells stably expressing human sGC alpha 1/beta 1, preincubated with 40 microM ODQ; cGMP by HTRF; Table 2 does not state whether with or without 50% human serum
Experimental: The sGC cellular activator assay is performed in the presence and absence of 50% human serum (HS) using Chinese hamster ovary cells that have been stably transfected to express the human soluble guanylate cyclase alpha 1 and beta 1 subunits (sGC). Cells are preincubated with 40 microM 1H-[1,2,4]oxadiazolo[4,3-a]quinoxalin-1-one (ODQ), an sGC inhibitor, for one h in buffer containing 0.1% bovine serum albumin and 3-isobutyl-1-methylxanthine (IBMX). Concentration response curves are prepared for test compounds in DMSO. An intermediate dilution of the compounds is performed in either buffer containing IBMX or type AB HS containing IBMX. Diluted compounds are added to cells and they are incubated at room temperature for thirty min. cGMP is measured using a CisBio homogeneous time resolved fluorescence kit and the EC50 is calculated for each compound.
Representative compounds of the present invention were tested for activity the above assay. Preferred compounds have an EC50 of <1,000 nM in the above assay and more preferred compounds have an EC50<200 nM.

physchem = conditions: kinetic from dmso stock
[2] = Human liver microsome (HLM) metabolic stability assay; type: in vitro ADME; conditions: human liver microsomes
Experimental: The 5 time point, high-throughput human liver microsome (HLM) metabolic stability assay is designed to determine in vitro compound metabolism. Compounds are incubated with HLMs at a concentration of 1 uM, at 37° C., for a total of 60 min. The percent of compound remaining at 5, 15, 30, and 60 min is used to calculate the t1/2 (min), CLint (mL/min/kg), CLh (mL/min/kg), and % Qh. The assay is based on a 96-well format and can accommodate up to 92 compounds per plate (n=1).
Using the 96-well multi-channel head, the Biomek FX, equipped with a Peltier heating block/shaker, is programmed to accomplish the following steps: • 1. Pipette 175 uL of 1.15 mg/mL microsomes into each of the 96 conical inserts (Analytical Sales and Products, catalog number 96PL05) that fit into the plate of the Peltier heating block/shaker (the incubation plate) • 2. Add 5 uL of compounds from the assay plate to the microsomes and shake the mixture at 600 rpm at 42.1° C. for 10 min (a setting of 42.1° C. on the Peltier is required for the samples to incubate at 37° C.) • 3. After 10 min, prompt the user to add the NADPH plate to the deck and add 20 uL from the NADPH plate to the incubation plate to start the reaction • 4. Add 215 uL of 100%, cold acetonitrile containing an internal standard(s) to a 0 minute, 5 minute, 15 minute, 30 minute, and 60 minute “quench” plate • 5. At 0 min, 5 min, 15 min, 30 min, and 60 min into the incubation, aspirate 12 uL from the incubation mixture and add it to the quench solution to stop the reaction • 6. Add 185 uL HPLC grade water to each well of the 0, 5, 15, 30 and 60 minute quench plates to dilute compounds to the appropriate concentration for the mass spectrometer
After all time points are collected, the quench plates are sealed with 96-well pierceable plate mats or heat sealing foil and centrifuged at 3000 rpm for 15 min to pellet the microsomes.
The plates are analyzed using LC/MS/MS with electron spray ionization (ESI) and the previously determined MRM transitions. The LC method includes the following parameters:
Using an Excel template in Activitybase, the peak areas corresponding to 5, 15, 30 and 60 min are compared to the peak area at 0 min to calculate the percent of remaining compound using the following equation:
Percent compound remaining=(AUC at Time t min/AUC at Time 0 min)×100 where t=0, 5, 15, 30 or 60 min.
Time (min) is plotted against the natural logarithm (Ln) of the percent compound remaining to determine the slope. The slope is used to calculate t1/2 (min) using the equation, t1/2=0.693/slope.
Clh, Hepatic clearance • Hepatic flow*f(u)*Clint/(hepatic flow+f(u)*Clint)
Qh, % Hepatic blood flow • (Clh/Hepatic flow)*100
Preferred compounds have % Qh values of less than 24.

[3] = pH 2.2, aqueous buffer, Solubility (pH 2.2)
[4] = pH 4.5, aqueous buffer, Solubility (pH 4.5)
[5] = pH 6.8, aqueous buffer, Solubility (pH 6.8)

human soluble guanylate cyclase alpha 1 and beta 1 subunits (sGC), sequence (Q02108 whole entry partner): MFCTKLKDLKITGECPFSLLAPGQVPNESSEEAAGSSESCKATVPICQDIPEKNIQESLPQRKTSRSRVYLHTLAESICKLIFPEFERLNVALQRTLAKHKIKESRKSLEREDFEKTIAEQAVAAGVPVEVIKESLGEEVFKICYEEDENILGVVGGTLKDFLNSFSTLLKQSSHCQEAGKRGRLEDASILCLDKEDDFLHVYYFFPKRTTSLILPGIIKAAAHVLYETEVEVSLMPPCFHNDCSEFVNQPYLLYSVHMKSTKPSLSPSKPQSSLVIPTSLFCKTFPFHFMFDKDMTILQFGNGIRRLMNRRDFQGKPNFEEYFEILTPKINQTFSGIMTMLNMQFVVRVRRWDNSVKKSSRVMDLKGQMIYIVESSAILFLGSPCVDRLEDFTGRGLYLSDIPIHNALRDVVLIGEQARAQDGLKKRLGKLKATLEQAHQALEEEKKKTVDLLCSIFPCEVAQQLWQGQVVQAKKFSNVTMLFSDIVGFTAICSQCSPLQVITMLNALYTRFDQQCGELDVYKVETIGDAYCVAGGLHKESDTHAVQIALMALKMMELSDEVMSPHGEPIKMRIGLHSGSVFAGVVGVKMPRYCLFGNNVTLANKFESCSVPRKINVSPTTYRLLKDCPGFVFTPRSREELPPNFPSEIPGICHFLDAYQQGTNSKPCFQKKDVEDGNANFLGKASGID
human soluble guanylate cyclase alpha 1 and beta 1 subunits (sGC), sequence (Q02153 whole entry): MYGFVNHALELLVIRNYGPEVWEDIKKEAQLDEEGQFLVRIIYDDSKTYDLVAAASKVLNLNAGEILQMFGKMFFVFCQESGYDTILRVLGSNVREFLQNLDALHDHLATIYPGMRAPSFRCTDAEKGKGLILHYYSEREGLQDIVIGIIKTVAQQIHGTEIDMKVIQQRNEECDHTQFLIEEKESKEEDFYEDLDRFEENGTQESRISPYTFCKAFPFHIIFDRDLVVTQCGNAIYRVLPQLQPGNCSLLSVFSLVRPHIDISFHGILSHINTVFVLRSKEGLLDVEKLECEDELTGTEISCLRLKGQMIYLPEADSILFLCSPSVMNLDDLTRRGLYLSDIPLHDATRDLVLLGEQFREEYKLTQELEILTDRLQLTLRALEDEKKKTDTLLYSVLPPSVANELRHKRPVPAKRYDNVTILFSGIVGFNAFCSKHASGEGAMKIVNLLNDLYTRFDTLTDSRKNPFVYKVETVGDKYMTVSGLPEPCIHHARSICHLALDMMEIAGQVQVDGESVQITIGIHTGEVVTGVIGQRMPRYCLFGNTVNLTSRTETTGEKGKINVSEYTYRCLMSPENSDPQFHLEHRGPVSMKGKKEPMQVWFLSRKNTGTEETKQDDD

EC50 [1] | solubility at 24 h (physchem; [3]) | solubility at 24 h (physchem; [4]) | solubility at 24 h (physchem; [5]) | Metabolic stability (Qh %), % hepatic blood flow [2] | SMILES
76 nM | 140 µg/mL | 100 µg/mL | 81 µg/mL | <24% | COC[C@H]1N(c2cccc(-c3cccc(C)c3OCc3ccc4c(c3)CCN(C3CCOC3)C4)n2)C[C@@H]2C[C@@]21C(=O)O (mixture of isomers) [Compound 45]
10 nM | 110 µg/mL | 14 µg/mL | 0.69 µg/mL | <24% | Cc1ccc(OCc2cc(C)c3c(c2)CCN(C2CCCOC2)C3)c(-c2csc(N3CC[C@@]4(C(=O)O)C[C@H]4C3)n2)c1 (mixture of isomers) [Compound 121]
11 nM | 120 µg/mL | 18 µg/mL | 1.6 µg/mL | 43% | Cc1ccc(OCc2cc(C)c3c(c2)CCN(C2CCOC2)C3)c(-c2csc(N3CC[C@@]4(C(=O)O)C[C@H]4C3)n2)c1 (mixture of isomers) [Compound 122]
27 nM | 110 µg/mL (≈ 188 µM) | 94 µg/mL (≈ 161 µM) | 74 µg/mL (≈ 127 µM) | 28% | COC[C@H]1N(c2cccc(-c3cccc(C)c3OCc3cc(C)c4c(c3)CCN(C3CCOC3)C4)n2)C[C@@H]2C[C@@]21C(=O)O (single isomer, unassigned) [Compound 51]
7 nM | 140 µg/mL (≈ 259 µM) | 120 µg/mL (≈ 222 µM) | 57 µg/mL (≈ 106 µM) | <24% | O=C(O)[C@@]12CCN(c3cccc(-c4ccccc4OCc4ccc5c(c4)CCN(C4CCOCC4)C5)n3)C[C@@H]1C2 [Compound 1, (1R,6S)-3-(6-{2-[2-(Tetrahydro-pyran-4-yl)-1,2,3,4-tetrahydro-isoquinolin-6-ylmethoxy]-phenyl}-pyridin-2-yl)-3-aza-bicyclo[4.1.0]heptane-6-carboxylic acid]
11 nM | 110 µg/mL (≈ 215 µM) | 90 µg/mL (≈ 176 µM) | 58 µg/mL (≈ 113 µM) | <24% | O=C(O)[C@@]12CCN(c3cccc(-c4ccccc4OCc4ccc5c(c4)CCN(C4COC4)C5)n3)C[C@@H]1C2 [Compound 2]
4 nM | 140 µg/mL (≈ 266 µM) | 120 µg/mL (≈ 228 µM) | 65 µg/mL (≈ 124 µM) | <24% | Cc1c(COc2ccccc2-c2cccc(N3CC[C@@]4(C(=O)O)C[C@H]4C3)n2)ccc2c1CCN(C1COC1)C2 [Compound 4]
3 nM | 160 µg/mL (≈ 281 µM) | 140 µg/mL (≈ 246 µM) | 79 µg/mL (≈ 139 µM) | 35% | Cc1c(COc2ccccc2-c2cccc(N3CC[C@@]4(C(=O)O)C[C@H]4C3)n2)ccc2c1CCN(CC1COCCO1)C2 (some centres unmarked) [Compound 5]
3 nM | 160 µg/mL (≈ 289 µM) | 130 µg/mL (≈ 235 µM) | 60 µg/mL (≈ 108 µM) | 54% | Cc1c(COc2ccccc2-c2cccc(N3CC[C@@]4(C(=O)O)C[C@H]4C3)n2)ccc2c1CCN(C1CCOCC1)C2 [Compound 6]
11 nM | 150 µg/mL (≈ 278 µM) | 120 µg/mL (≈ 222 µM) | 59 µg/mL (≈ 109 µM) | 45% | Cc1c(COc2ccccc2-c2cccc(N3CC[C@@]4(C(=O)O)C[C@H]4C3)n2)ccc2c1CCN([C@H]1CCOC1)C2 [Compound 7]
12 nM | 150 µg/mL (≈ 278 µM) | 110 µg/mL (≈ 204 µM) | 44 µg/mL (≈ 81.5 µM) | 49% | Cc1c(COc2ccccc2-c2cccc(N3CC[C@@]4(C(=O)O)C[C@H]4C3)n2)ccc2c1CCN([C@@H]1CCOC1)C2 [Compound 8]
1 nM | 130 µg/mL (≈ 228 µM) | 110 µg/mL (≈ 193 µM) | 53 µg/mL (≈ 93 µM) | 37% | Cc1c(COc2ccccc2-c2cccc(N3CC[C@@]4(C(=O)O)C[C@H]4C3)n2)ccc2c1CCN(C[C@H]1COCCO1)C2 [Compound 9]
9 nM | 130 µg/mL (≈ 228 µM) | 110 µg/mL (≈ 193 µM) | 55 µg/mL (≈ 96.5 µM) | 32% | Cc1c(COc2ccccc2-c2cccc(N3CC[C@@]4(C(=O)O)C[C@H]4C3)n2)ccc2c1CCN(C[C@@H]1COCCO1)C2 [Compound 10]
4 nM | 140 µg/mL (≈ 253 µM) | 110 µg/mL (≈ 199 µM) | 46 µg/mL (≈ 83.1 µM) | 53% | Cc1c(COc2ccccc2-c2cccc(N3CC[C@@]4(C(=O)O)C[C@H]4C3)n2)ccc2c1CCN([C@H]1CCCOC1)C2 [Compound 11]
17 nM |  |  |  |  | CO[C@H]1CN(c2nc(-c3cc(C)ccc3OCc3ccc4c(c3C)CCN(C[C@H]3CCOC3)C4)cs2)CC[C@H]1C(=O)O [Compound 179]
80 nM |  |  |  | 42% | Cc1ccc(OCc2ccc3c(c2)CCN(C2CCC(F)(F)CC2)C3)c(-c2csc(N3C[C@H]4CC[C@@H](C3)[C@H]4C(=O)O)n2)c1 [Compound 183]
68 nM |  |  |  |  | Cc1ccc(OCc2ccc3c(c2)CCN(C2CCOCC2)C3)c(-c2csc(N3C[C@H]4CC[C@@H](C3)[C@H]4C(=O)O)n2)c1 [Compound 184]
22 nM |  |  |  | 52% | Cc1ccc(OCc2ccc3c(c2)CCN(C2CCOCC2)C3=O)c(-c2cccc(N3CC[C@@]4(C(=O)O)C[C@H]4C3)n2)c1 [Compound 193]
23 nM |  |  |  | <24% | CCO[C@H]1CN(c2nccc(-c3cccc(C)c3OCc3cc(C)c4c(c3)CCN(C3CCOCC3)C4)n2)CC[C@H]1C(=O)O [Compound 245]
659 nM |  |  |  | <24% | CCO[C@@H]1CN(c2nccc(-c3cccc(C)c3OCc3cc(C)c4c(c3)CCN(C3CCOCC3)C4)n2)CC[C@@H]1C(=O)O [Compound 247]
 | 108 µg/mL (≈ 187 µM) | 77.7 µg/mL (≈ 134 µM) | 77.9 µg/mL (≈ 135 µM) | <24% | CO[C@H]1CN(c2nc(-c3cccc(C)c3OCc3cc(C)c4c(c3)CCN(C3COC3)CC4)cs2)CC[C@H]1C(=O)O [Compound 294]
 | 109 µg/mL (≈ 180 µM) | 80.5 µg/mL (≈ 133 µM) | 79.2 µg/mL (≈ 131 µM) | <24% | CO[C@H]1CN(c2nc(-c3cccc(C)c3OCc3cc(C)c4c(c3)CCN(C3CCOCC3)CC4)cs2)CC[C@H]1C(=O)O [Compound 295]
 | 157 µg/mL (≈ 270 µM) | 154 µg/mL (≈ 265 µM) | 146 µg/mL (≈ 251 µM) | 48% | Cc1csc(CN2CCc3c(ccc(COc4ccccc4-c4cccc(N5CC[C@@]6(C(=O)O)C[C@H]6C5)n4)c3C)C2)n1 [Compound 304]
5 nM | 93 µg/mL (≈ 172 µM) | 73.7 µg/mL (≈ 136 µM) | 5.2 µg/mL (≈ 9.6 µM) |  | COCC(C)N1CCc2c(ccc(COc3ccccc3-c3cccc(N4CC[C@@]5(C(=O)O)C[C@H]5C4)n3)c2C)C1 (some centres unmarked) [Compound 310]
10 nM | 109 µg/mL (≈ 173 µM) | 68.3 µg/mL (≈ 109 µM) | 66.7 µg/mL (≈ 107 µM) |  | CO[C@H]1CN(c2nc(-c3cccc(Cl)c3OCc3ccc4c(c3)CCN(C3CCOCC3)C[C@H]4C)cs2)CC[C@H]1C(=O)O [Compound 333]
80 nM |  |  |  |  | Cc1cccc(-c2cccc(N3CC[C@@H](C(=O)O)[C@H]4OCCC[C@@H]43)n2)c1OCc1ccc2c(c1C)CCN(C1CCOCC1)CC2 [Compound 335]

Source: patent US9353090B2, “Heterocyclic carboxylic acids as activators of soluble guanylate cyclase” (Boehringer Ingelheim International GmbH, priority 2014, dated 2016)
